Results taken from patent US20220306691A1, “THERAPEUTIC PEPTIDES” (COHBAR, INC., priority 2019, published 2022).
Where a SMILES comes first, the peptide text is derived from it. Where no end group is shown, it is not given here. [ ]: non-standard residue; d: D form.

Experiments:
3T3-L1 adipocytes = test: Free fatty acid levels in cultured 3T3-L1 adipocytes stimulated with isoproterenol; conditions: for Free Fatty Acid Levels, Percent of Control Value (Percent Isoproterenol Control): test peptides 25 μM, 20-22 hours then 3 hours with isoproterenol (1 nM)
Experimental: Mouse 3T3-L1 adipocytes were seeded at 3,000 cells per well in 96-well plates in Pre-adipocyte Medium (Zen-Bio, Durham, N.C.) and grown to confluence at 37° C. in a humidified atmosphere of 5% CO2/95% air. Two days after confluence, cells were placed in Adipocyte Differentiation Medium (Zen-Bio, Durham, N.C.) and cultured for three additional days at 37° C. in a humidified atmosphere of 5% CO2/95% air. The culture media was then replaced with Adipocyte Maintenance Medium (Zen-Bio) and the cells maintained for an additional 9-12 days at 37° C. in a humidified atmosphere of 5% CO2/95% air with partial medium replacement every other day. Following 12-15 days' differentiation, test peptides were added to a final concentration of 25 μM and incubated for 20-22 hours in Adipocyte Maintenance Medium. After 20-22 hours, isoproterenol (1 nM) was added to all wells except untreated controls and test peptides were replenished. Cells were incubated for a further 3 hours in Assay Buffer (Zen-Bio). Free fatty acid concentrations in the media were determined using a Free Fatty Acid Assay Kit (Zen-Bio) according to the manufacturer's instructions using a plate reader (540 nm). Absorbance values were corrected for untreated background and expressed relative to isoproterenol treated cells. Treatment with isoproterenol (1 nM) alone was used as the free fatty acid level stimulatory control. The relative standard deviation of the isoproterenol control was <10%.

MDA-MB-231 cells [1] = test: Caspase 3/7 activity (Caspase-Glo 3/7) in MDA-MB-231 cells; assay type: cell-based, human; conditions: test peptides at 10 μM, 18 hours, relative to DMSO control
Experimental: The effect of the peptides on cell death/survival can be assessed using a caspase-3 assay. Peptides were dissolved with DMSO at 10 mM stock. […] Staurosporine (Selleckchem) was dissolved with DMSO at 1 mM stock. Caspase-Glo 3/7 Assay Reagent was purchased from Promega (Madison, Wis.). MDA-MB-231 human breast cancer cell line was purchased from American Type Culture Collection (Manassas, Va.). MDA-MB-231 cells were grown in DMEM Medium supplemented with 10% FBS. 100 μg/ml penicillin and 100 μg/ml streptomycin were added to the culture medium. […] 25 μl of Caspase-Glo 3/7 Assay Reagent was added to each well and incubated at 37° C., 5% CO2 for 1 hour. Luminescence for each sample well on the plate was measured by Envision 2104 Multilabel Reader (PerkinElmer, Santa Clara, Calif.). Activity was calculated relative to DMSO control.

MCF-7 cells = test: Cell viability, MTS assay in MCF-7 cells; conditions: for MTS Assay (cell viability), Percent of Control Activity: human, 72 hours, 10 µM
Experimental: Peptides and reference compound staurosporine (Selleckchem) were dissolved with DMSO at 10 mM stock. CellTiter 96® AQueous One Solution Reagent (MTS assay reagent) was purchased from Promega (Madison, Wis.). MCF-7 human breast cancer cell line was purchased from American Type Culture Collection (Manassas, Va.). MCF-7 cells were grown in EMEM Medium supplemented with 10% FBS and 0.01 mg/ml human recombinant insulin. 100 μg/ml penicillin and 100 μg/ml streptomycin were added to the culture medium. […] 5 μl of CellTiter 96® AQueous One Solution Reagent (MTS assay reagent) was added to each well and incubated at 37° C., 5% CO2 for 5 hours. Absorbance at 492 nm was recorded by Envision 2104 Multilabel Reader. Treatment with DMSO alone was used as the cell viability activity control.

MDA-MB-231 cells [2] = test: Cell viability, MTS assay in MDA-MB-231 cells; assay type: cell-based, human; conditions: for MTS Assay (cell viability), Percent of Control Activity: human, 72 hours
Experimental: Test compounds and reference compound staurosporine (Selleckchem) were all dissolved with DMSO at 10 mM stock. […] Activity was calculated relative to DMSO control. […] Cell viability was 3% of the DMSO control value for Staurosporine (10 uM).

Compound	Free Fatty Acid Levels, Percent of Control Value (Percent Isoproterenol Control) (3T3-L1 adipocytes)	also measured
3 (LACFRCEIVVGSWCWSLS) [compound 3]	109%	
4 (ACFRCEIVVGSWCWSLS; not fully specified; cysteine pairing not given here) [compound 4]	116%	
5 ([dA]CFRCEIVVGSWCWSLS; cysteine pairing not given here) [compound 5]	113%	
8 (NIVVGKRLIIKVDATMDFT; not fully specified) [compound 8]	81%	
9 (NIVVGKRLIIKVD[dA]TMDFT) [compound 9]	103%	
10 (NIVV[dA]KRLIIKVDATMDFT) [compound 10]	91%	
13 (WWVSEPHCVVVNM) [compound 13]	109%	
14 (WWVSEPHCVVVN) [compound 14]	102%	
15 (WVSEPHCVVVN) [compound 15]	97%	
18 (VHHRILTVIYKLRPKH) [compound 18]	75%	
19 (HHRILTVIYKLRPKH) [compound 19]	78%	
20 (HRILTVIYKLRP[dA]H) [compound 20]	27%	
23 (VITFIWSCTKIFGA) [compound 23]	128%	
24 (VITFIWSCTKIFG) [compound 24]	90%	
25 (VITFIWSCTKIF) [compound 25]	115%	
CC[C@H](C)[C@H](NC(=O)[C@H](CCC(=O)O)NC(=O)[C@H](CS)NC(=O)[C@H](CCCNC(=N)N)NC(=O)[C@H](Cc1ccccc1)NC(=O)[C@H](CS)NC(=O)[C@H](C)NC(=O)[C@H](CC(C)C)NC(=O)[C@@H](N)CCSC)C(=O)N[C@H](C(=O)N[C@H](C(=O)NCC(=O)N[C@@H](CO)C(=O)N[C@@H](Cc1c[nH]c2ccccc12)C(=O)N[C@@H](CS)C(=O)N[C@@H](Cc1c[nH]c2ccccc12)C(=O)N[C@@H](CO)C(=O)N[C@@H](CC(C)C)C(=O)N[C@@H](CO)C(=O)O)C(C)C)C(C)C [compound 2] (H-MLACFRCEIVVGSWCWSLS-OH; N-terminus and C-terminus assumed)	114%	Caspase 3/7 Activity, Percent of Control Activity (MDA-MB-231 cells [1]): 95%; MTS Assay (cell viability), Percent of Control Activity (MCF-7 cells): 55%; MTS Assay (cell viability), Percent of Control Activity (MDA-MB-231 cells [2]): 78%
CN[C@@H]1C[C@H]2O[C@@](C)([C@@H]1OC)n1c3ccccc3c3c4c(c5c6ccccc6n2c5c31)C(=O)NC4 [staurosporine, reference compound]		Cell viability, % of the background corrected DMSO control value (MCF-7 cells; MCF-7 cells, staurosporine 10 uM, positive control): < 5%; Cell viability, % of the DMSO control value (MDA-MB-231 cells [2]; MDA-MB-231 cells, Staurosporine 10 uM, positive control): 3%
Insulin [reference compound]		Free fatty acid levels, % of the isoproterenol control value (3T3-L1 adipocytes; insulin 100 nM, positive control): < 5%
MNIVVGKRLIIKVDATMDFT [compound 7]	94%	Caspase 3/7 Activity, Percent of Control Activity (MDA-MB-231 cells [1]): 73%; MTS Assay (cell viability), Percent of Control Activity (MCF-7 cells): 59%; MTS Assay (cell viability), Percent of Control Activity (MDA-MB-231 cells [2]): 75%
MVHHRILTVIYKLRPKH [compound 17]	88%	Caspase 3/7 Activity, Percent of Control Activity (MDA-MB-231 cells [1]): 74%; MTS Assay (cell viability), Percent of Control Activity (MCF-7 cells): 60%; MTS Assay (cell viability), Percent of Control Activity (MDA-MB-231 cells [2]): 82%
MVITFIWSCTKIFGA [compound 22]	133%	Caspase 3/7 Activity, Percent of Control Activity (MDA-MB-231 cells [1]): 69%; MTS Assay (cell viability), Percent of Control Activity (MCF-7 cells): 58%; MTS Assay (cell viability), Percent of Control Activity (MDA-MB-231 cells [2]): 81%
MWWVSEPHCVVVNM [compound 12]	112%	Caspase 3/7 Activity, Percent of Control Activity (MDA-MB-231 cells [1]): 56%; MTS Assay (cell viability), Percent of Control Activity (MCF-7 cells): 63%; MTS Assay (cell viability), Percent of Control Activity (MDA-MB-231 cells [2]): 78%
